Measurements as given in patent US10222368B2 (priority 2012, dated 2019).

How the values were obtained:
α7nAChR-FLNA complex = target: T1, α7nAChR-FLNA complex (Homo sapiens, UniProt P21333); assay: Lymphocyte co-immunoprecipitation / Western blot; type: cell-based
T1 construct: To determine the levels of FLNA-α7nAChR, FLNA-TLR4 and α7nAChR-Aβ42 complexes in the lymphocytes; endogenous in cells; host or cells: lymphocytes from venous blood of AD patients and control subjects (ex vivo)
Experimental: (§1) To prepare lymphocytes, 7 ml of venous blood was collected into an EDTA-containing collecting tube or S-monovette (Sarstedt, Newton, N.C.). […] The lymphocytes were washed twice by mixing with 6 ml oxygenated Kreb's-Ringer followed by centrifugation at 250×g for 10 minutes and re-suspension. […] To store lymphocytes, the lymphocyte pellet was resuspended in 250 μl ice-cold oxygenated Kreb's-Ringer containing 10% glycerol, and stored at −20° C. for 1 hour before storage at −80° C.
(§2) In the case that frozen lymphocyte samples were used, a lymphocyte suspension was gradually thawed by storing at −20° C. for 1 hour after removal from −80° C. and then at thawed at 4° C.
The incubation was terminated by adding 1 ml ice-cold Ca^2+-free Kreb's-Ringer containing 0.5 mM EGTA/0.1 mM EDTA, protease and phosphatase inhibitors followed by centrifugation. The resultant lymphocyte pellet was homogenized in 0.25 ml ice-cold immunoprecipitation buffer. […]
The membranes were then washed 3 times (1 minutes each) with 0.1% Tween-20 containing PBS and then once with distilled water for 1 minutes. The immunoreactivity was detected by a chemiluminutesescent method (Supersignal chemiluminutesescent reagents−Pierce/Thermo), and visualized by immediate exposure to X-ray film for 10-30 seconds (depending on the intensity of the signal). Specific protein bands were quantified by densitometric scanning (GS-800 calibrated densitometer, Bio-Rad Laboratories).
The membranes were then washed 3 times (1 minutes each) with 0.1% Tween®-20-containing PBS and then once with distilled water for 1 minute. The immunoreactivity was detected by a chemiluminutesescent method (Supersignal chemiluminutesescent reagents—Pierce/Thermo), and visualized by immediate exposure to X-ray film for 10-30 seconds (depending on the intensity of the signal). Specific protein bands were quantified by densitometric scanning (GS-800 calibrated densitometer, Bio-Rad Laboratories). The data are expressed as the ratio of α7nAChR/FLNA, TLR4/FLNA or α7nAChR/β-Actin optical intensities (in arbitrary units).

Aβ42-α7nAChR complex = assay: Lymphocyte co-immunoprecipitation / Western blot; type: cell-based, human
Experimental: as §1, §2
The incubation was terminated by adding 1 ml ice-cold Ca^2+-free Kreb's-Ringer containing 0.5 mM EGTA/0.1 mM EDTA, protease and phosphatase inhibitors followed by centrifugation. […]
The membranes were then washed 3 times (1 minutes each) with 0.1% Tween-20 containing PBS and then once with distilled water for 1 minutes. The immunoreactivity was detected by a chemiluminutesescent method (Supersignal chemiluminutesescent reagents−Pierce/Thermo), and visualized by immediate exposure to X-ray film for 10-30 seconds (depending on the intensity of the signal). Specific protein bands were quantified by densitometric scanning (GS-800 calibrated densitometer, Bio-Rad Laboratories). […]

α7nAChR-Aβ42 complex = assay: 96-well FITC-solid phase method in lymphocytes; type: cell-based, human; details: 1 nM C0105, 30 min; AD lymphocytes or Aβ42-treated control lymphocytes
Description: FIG. 2 illustrates the utility of a 96-well FITC-solid phase assay method to assess, in lymphocytes from AD patients and control subjects, levels of 1) the FLNA-α7nAChR association 2) the FLNA-TLR4 association and 3) α7nAChR-Aβ42 complexes. The top two panels show α7nAChR and TLR4 levels detected using respective FITC-anti-α7nAChR or FITC-anti-TLR4 antibodies after capturing FLNA coupled to α7nAChR and TLR4, respectively, with an anti-FLNA antibody coated on the microtiter solid phase plate.
To prepare lymphocytes, 7 ml of venous blood was collected into an EDTA-containing collecting tube or S-monovette (Sarstedt). Collected blood (6 ml) was layered onto 6 ml of Histopaque®-1077 (Sigma) at 25° C., and the anticoagulated blood was centrifuged at 400×g for 30 minutes (25° C.) to yield plasma (top layer) and lymphocytes (opaque interface). The lymphocytes were washed twice by mixing with 6 ml of oxygenated K-R followed by centrifugation at 250×g for 10 minutes and resuspension. […]
After two 1-minute washes with 50 mM Tris HCl (pH 7.4), each well was incubated in 0.5 μg/well FITC-conjugated anti-mouse IgG (human and mouse absorbed) for 1 hour at 25° C. Plates were washed twice with 200 μl ice-cold Tris HCl, pH 7.4 and the residual FITC-Aβ42 signals were determined by multimode plate reader, DTX880 (Beckman). […]

α7nAChR/Aβ42 complexes = assay: Protein A and Protein G capture plate assay in lymphocytes; type: cell-based, human; details: 1 nM
Experimental: Each sample was assessed in duplicate.

[1] = 1 nM C0105, lymphocytes of 10 YCI controls

T1 sequence (P21333 2-2647 limits assumed, one chain of several): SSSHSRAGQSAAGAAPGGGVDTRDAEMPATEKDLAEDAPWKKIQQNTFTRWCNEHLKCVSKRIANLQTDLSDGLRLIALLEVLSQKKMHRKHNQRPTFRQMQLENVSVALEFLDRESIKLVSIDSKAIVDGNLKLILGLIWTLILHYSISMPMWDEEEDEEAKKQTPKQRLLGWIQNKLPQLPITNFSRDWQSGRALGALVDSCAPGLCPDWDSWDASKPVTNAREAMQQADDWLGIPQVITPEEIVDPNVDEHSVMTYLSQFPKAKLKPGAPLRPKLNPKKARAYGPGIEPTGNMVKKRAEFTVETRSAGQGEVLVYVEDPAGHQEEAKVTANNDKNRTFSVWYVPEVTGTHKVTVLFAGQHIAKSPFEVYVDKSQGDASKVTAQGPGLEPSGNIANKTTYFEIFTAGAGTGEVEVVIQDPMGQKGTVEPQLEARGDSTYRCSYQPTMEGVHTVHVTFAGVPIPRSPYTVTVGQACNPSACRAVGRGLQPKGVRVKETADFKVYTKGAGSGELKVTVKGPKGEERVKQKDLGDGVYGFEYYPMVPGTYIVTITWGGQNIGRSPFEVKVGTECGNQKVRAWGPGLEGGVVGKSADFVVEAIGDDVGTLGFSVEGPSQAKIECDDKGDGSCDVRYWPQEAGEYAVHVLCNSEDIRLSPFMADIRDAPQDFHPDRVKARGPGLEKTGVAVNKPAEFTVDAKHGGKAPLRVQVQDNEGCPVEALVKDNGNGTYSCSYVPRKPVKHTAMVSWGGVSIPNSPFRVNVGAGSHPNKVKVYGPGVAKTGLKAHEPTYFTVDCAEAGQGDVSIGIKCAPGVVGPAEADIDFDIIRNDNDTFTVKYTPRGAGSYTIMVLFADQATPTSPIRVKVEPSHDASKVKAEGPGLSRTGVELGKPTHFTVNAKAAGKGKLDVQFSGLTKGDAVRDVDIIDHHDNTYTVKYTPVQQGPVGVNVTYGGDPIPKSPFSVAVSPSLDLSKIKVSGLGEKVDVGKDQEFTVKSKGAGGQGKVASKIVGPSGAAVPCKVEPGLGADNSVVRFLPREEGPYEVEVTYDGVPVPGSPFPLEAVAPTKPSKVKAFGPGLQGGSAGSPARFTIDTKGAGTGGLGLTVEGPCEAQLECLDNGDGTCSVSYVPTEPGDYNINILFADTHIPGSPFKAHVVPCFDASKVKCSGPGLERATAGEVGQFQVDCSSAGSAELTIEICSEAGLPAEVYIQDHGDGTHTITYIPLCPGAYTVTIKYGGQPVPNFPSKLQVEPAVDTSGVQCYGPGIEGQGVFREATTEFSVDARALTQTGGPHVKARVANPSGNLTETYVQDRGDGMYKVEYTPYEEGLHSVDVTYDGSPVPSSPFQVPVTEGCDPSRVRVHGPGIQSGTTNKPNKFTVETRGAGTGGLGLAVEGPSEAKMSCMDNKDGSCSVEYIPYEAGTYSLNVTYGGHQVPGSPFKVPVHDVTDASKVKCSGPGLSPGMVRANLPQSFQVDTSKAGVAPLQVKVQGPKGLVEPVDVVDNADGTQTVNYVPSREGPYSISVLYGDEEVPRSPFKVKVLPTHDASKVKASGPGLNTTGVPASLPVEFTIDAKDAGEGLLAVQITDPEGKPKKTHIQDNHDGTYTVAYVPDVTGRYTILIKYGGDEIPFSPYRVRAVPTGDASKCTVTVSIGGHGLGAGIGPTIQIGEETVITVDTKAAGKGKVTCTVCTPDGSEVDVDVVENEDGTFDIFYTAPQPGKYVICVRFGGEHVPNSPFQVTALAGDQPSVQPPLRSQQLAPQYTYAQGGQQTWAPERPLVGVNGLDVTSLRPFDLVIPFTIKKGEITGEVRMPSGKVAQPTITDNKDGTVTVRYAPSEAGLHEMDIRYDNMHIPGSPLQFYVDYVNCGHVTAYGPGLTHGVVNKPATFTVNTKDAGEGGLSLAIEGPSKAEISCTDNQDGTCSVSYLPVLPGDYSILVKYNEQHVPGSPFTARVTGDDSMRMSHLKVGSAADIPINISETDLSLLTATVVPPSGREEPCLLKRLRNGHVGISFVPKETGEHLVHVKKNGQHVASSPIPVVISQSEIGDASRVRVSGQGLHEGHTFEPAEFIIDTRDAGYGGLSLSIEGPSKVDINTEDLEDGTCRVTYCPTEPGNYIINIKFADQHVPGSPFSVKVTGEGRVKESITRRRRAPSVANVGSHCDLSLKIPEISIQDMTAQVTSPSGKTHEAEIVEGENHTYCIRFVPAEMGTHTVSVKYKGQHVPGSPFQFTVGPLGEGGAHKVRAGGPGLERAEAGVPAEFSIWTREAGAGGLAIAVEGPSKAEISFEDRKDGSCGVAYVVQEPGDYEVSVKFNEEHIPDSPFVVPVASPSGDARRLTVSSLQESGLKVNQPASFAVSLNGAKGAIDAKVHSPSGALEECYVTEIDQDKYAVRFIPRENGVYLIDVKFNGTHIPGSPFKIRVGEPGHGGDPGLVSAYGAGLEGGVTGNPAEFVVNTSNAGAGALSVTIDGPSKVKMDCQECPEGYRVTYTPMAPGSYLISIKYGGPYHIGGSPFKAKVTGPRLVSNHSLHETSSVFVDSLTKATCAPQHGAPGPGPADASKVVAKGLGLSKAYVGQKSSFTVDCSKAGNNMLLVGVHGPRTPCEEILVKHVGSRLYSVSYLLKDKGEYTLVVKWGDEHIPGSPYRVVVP

## CN1CCC2(CC1)NCC(=O)N2Cc1ccccc1 [Compound C0105]
α7nAChR-FLNA complex; 1 nM C0105, 30 min, lymphocytes of 20 AD subjects, read-out: Reduction of α7nAChR/FLNA complex level (% inhibition)
  inhibition at 0.001 µM: ~50%
α7nAChR-FLNA complex; 1 nM C0105, Aβ42-treated control and untreated AD lymphocytes
  Effect on amount of α7nAChR-FLNA complexes (in words), pilot study: decreases the amount of α7nAChR-FLNA complexes
α7nAChR-FLNA complex; [1]
  Effect on α7nAChR/FLNA complex level (in words): no discernible effect
Aβ42-α7nAChR complex; 1 nM C0105, 30 min, lymphocytes of 20 AD subjects
  Reduction of α7nAChR/Aβ42 complex level (% inhibition): approximately 50%
Aβ42-α7nAChR complex; [1]
  Effect on α7nAChR/Aβ42 complex level (in words): no discernible effect
α7nAChR-Aβ42 complex
  Effect on α7nAChR-Aβ42 complexes (in words): reduce all three associations
α7nAChR/Aβ42 complexes; AD lymphocytes
  Decrease in amount of α7nAChR/Aβ42 complexes: approximately 50%
α7nAChR/Aβ42 complexes; YCI lymphocytes
  Response of α7nAChR/Aβ42 complexes (in words): essentially non-responsive
